{"source": "patent US20200262877A1", "about": "“ION CHANNEL-BINDING PEPTIDES AND METHODS OF USE THEREOF” (priority 2017, published 2020)", "key": {"panel of 20 ion channels": {"tested_on": "panel of 20 ion channels", "assay_type": "cell-based", "settings": "potassium channels of the panel; 0.2 or 20 μM; FIG. 2", "description": "This example describes a method for assaying ion channel activity in cells.\nPeptides were screened in duplicate at final concentrations of 20 μM and 200 nM, as determined by amino acid analysis, and diluted into HEPES buffered physiological saline (HBPS). HEK293 or CHO cells from the American Type Culture Collection (ATCC) were transfected with the appropriate ion channel before use. HEK293 cells were grown in Dulbecco's Modified Eagle Medium/Nutrient Mixture F-12, and CHO cells were cultured in Ham's F-12 media. All cultures were supplemented with 10% fetal bovine serum, 100 U/ml penicillin G, 100 μg/ml streptomycin sulfate, and the appropriate selection antibiotics. Prior to use, cells were washed twice with Hank's Balanced Salt Solution, and treated with Accutase cell detachment solution (Sigma-Aldrich). Cells were then washed. Peptides and controls were incubated with cells for at least five minutes.\nPercent inhibition was defined as: (1-(Ipeptide/Icontrol))×100%).\nPercent values were calculated using the following formula: % activation=(IPeptide/Icontrol)×100%, where IPeptide is the current produced by co-application a peptide with agonist, and Icontrol refers to the current produced by stimulation in control. Control used for each ion channel is the reference compound matched to a particular channel, as illustrated in TABLE 10 below."}, "hERG": {"target": "hERG (Homo sapiens, UniProt Q12809)", "test": "in vitro", "settings": "0.2 or 20 μM; FIG. 2", "outline": "(§1)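 Peptides were tested in duplicate at final 20 μM and 200 nM, with concentration set by amino acid analysis, in HEPES-buffered saline. They were applied for at least 5 min to HEK293 or CHO cells transfected with each channel. Currents were expressed as % inhibition, 1-(Ipeptide/Icontrol)×100, or % activation, Ipeptide/Icontrol×100, against a channel-matched reference compound.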"}, "Kv1.3 [1]": {"target": "T1, Kv1.3 (Homo sapiens, UniProt P22001)", "T1 construct": "host or cells: HEK293 or CHO", "T1 sequence (P22001 whole entry)": "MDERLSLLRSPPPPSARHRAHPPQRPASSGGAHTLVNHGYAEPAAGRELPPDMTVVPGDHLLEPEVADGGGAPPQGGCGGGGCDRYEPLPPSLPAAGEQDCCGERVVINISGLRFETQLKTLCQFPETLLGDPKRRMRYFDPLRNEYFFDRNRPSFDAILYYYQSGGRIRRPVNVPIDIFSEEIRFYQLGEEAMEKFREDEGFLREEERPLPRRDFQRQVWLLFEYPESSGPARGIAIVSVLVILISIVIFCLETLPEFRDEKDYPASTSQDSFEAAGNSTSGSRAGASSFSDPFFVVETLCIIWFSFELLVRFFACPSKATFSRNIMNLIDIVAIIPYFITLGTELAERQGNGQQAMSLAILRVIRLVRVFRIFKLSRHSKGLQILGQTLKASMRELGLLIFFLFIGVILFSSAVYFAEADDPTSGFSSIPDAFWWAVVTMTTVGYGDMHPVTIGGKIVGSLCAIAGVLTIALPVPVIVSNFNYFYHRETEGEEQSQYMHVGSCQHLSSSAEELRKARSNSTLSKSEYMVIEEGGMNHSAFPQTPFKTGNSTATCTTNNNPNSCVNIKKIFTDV", "test": "cell-based", "assay_type": "cell-based", "settings": "for activity at 20 µM: peptide at 20 μM", "outline": "as §1"}, "Nav1.7": {"target": "T2, Nav1.7 (Homo sapiens, UniProt Q15858)", "T2 construct": "host or cells: HEK293 or CHO", "test": "cell-based", "assay_type": "cell-based", "settings": "0.2 or 20 μM; FIG. 2"}, "[2]": {"target": "T3, Nav1.5 cardiac sodium channel (human SCN5A gene) (Homo sapiens, UniProt Q14524)", "T3 sequence (Q14524 whole entry)": "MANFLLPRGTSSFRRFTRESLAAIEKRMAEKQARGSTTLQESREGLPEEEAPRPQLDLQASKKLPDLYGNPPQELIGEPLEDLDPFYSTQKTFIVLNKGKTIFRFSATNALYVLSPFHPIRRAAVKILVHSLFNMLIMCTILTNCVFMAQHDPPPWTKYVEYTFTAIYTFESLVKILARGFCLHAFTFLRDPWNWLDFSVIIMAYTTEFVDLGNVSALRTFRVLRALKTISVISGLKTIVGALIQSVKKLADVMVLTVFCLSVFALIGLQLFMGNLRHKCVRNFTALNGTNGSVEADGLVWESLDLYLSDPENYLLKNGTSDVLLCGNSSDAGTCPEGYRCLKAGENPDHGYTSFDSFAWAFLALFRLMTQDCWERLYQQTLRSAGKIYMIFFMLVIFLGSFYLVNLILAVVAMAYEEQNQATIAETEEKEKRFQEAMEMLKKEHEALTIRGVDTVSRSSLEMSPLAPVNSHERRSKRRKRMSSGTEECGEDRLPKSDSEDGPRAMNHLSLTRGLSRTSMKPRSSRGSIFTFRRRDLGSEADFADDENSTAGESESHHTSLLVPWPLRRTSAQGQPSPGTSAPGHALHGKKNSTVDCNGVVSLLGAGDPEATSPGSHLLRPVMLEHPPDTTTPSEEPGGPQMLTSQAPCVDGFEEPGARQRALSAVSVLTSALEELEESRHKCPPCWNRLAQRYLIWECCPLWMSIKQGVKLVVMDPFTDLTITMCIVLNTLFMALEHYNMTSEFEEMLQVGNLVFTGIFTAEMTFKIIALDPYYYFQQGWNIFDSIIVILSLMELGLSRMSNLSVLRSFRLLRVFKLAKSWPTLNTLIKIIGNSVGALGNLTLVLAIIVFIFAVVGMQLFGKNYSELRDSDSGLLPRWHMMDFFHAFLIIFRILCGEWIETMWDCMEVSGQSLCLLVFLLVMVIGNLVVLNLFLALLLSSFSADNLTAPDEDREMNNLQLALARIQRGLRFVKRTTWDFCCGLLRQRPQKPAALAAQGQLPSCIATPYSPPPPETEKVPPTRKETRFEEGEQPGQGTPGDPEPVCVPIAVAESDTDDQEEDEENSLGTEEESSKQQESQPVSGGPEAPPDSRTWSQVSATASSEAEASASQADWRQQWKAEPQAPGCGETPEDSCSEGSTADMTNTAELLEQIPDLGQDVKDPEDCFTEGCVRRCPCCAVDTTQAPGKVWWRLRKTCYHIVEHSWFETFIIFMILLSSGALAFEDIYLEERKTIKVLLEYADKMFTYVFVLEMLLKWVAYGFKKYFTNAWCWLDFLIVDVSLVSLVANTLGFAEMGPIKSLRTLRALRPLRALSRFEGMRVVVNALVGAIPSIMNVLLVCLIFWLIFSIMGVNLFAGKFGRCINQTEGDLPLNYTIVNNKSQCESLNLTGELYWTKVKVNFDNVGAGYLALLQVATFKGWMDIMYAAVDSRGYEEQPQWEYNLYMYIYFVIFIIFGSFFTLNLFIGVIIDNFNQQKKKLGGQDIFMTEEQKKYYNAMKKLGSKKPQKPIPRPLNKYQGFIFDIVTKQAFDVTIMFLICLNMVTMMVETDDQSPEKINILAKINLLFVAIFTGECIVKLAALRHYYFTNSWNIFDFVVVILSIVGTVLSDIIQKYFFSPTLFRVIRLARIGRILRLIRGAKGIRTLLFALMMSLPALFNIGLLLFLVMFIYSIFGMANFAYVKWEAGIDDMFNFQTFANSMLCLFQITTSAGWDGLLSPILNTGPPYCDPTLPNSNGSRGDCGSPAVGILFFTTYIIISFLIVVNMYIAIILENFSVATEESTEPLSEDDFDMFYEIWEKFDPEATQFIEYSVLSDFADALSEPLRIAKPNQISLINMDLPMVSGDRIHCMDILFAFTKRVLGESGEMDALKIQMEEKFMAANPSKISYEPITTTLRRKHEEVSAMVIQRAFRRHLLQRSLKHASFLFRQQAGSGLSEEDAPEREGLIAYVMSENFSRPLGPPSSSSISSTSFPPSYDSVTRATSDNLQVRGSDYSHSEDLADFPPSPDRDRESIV", "settings": "read-out: IC50 Nav1.5 ion channel inhibition, TP2; human Nav1.5 in CHO cells; TP2 (inactivated state inhibition)"}, "[3]": {"target": "T3, Nav1.5 cardiac sodium channel (human SCN5A gene)", "test": "cell-based"}, "[4]": {"target": "Kv1.3 potassium channel (human KCNA3 gene) (Homo sapiens, UniProt P22001)", "sequence (P22001 whole entry)": "as the sequence (P22001 whole entry) above", "test": "cell-based", "parameters": "host or cells: CHO", "settings": "human Kv1.3 in CHO cells"}, "[5]": {"target": "Kv1.5 potassium channel (human KCNA5 gene) (Homo sapiens, UniProt P22460)", "sequence (P22460 whole entry)": "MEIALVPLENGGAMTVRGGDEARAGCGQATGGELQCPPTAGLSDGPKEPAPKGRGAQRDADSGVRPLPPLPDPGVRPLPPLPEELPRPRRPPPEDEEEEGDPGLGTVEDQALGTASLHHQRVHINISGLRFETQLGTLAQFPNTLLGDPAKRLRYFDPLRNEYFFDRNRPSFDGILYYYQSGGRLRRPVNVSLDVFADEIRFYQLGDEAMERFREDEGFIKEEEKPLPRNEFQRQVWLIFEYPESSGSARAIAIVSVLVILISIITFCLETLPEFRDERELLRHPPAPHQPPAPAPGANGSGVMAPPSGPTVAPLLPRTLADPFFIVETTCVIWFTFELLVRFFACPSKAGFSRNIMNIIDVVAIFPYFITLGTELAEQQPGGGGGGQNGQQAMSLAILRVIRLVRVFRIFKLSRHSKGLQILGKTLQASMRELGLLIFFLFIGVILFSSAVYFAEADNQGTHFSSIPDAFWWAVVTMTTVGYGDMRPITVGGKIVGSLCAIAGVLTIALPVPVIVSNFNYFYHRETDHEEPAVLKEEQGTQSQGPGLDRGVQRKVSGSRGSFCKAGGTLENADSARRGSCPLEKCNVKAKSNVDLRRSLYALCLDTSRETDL", "test": "cell-based", "parameters": "host or cells: CHO", "settings": "human Kv1.5 in CHO cells"}, "[6]": {"target": "Nav1.3 sodium channel (human SCN3A gene) (Homo sapiens, UniProt Q9NY46)", "test": "cell-based", "parameters": "host or cells: CHO", "settings": "human Nav1.3 in CHO cells"}, "[7]": {"target": "Nav1.4 sodium channel (human SCN4A gene) (Homo sapiens, UniProt P35499)", "sequence (P35499 whole entry)": "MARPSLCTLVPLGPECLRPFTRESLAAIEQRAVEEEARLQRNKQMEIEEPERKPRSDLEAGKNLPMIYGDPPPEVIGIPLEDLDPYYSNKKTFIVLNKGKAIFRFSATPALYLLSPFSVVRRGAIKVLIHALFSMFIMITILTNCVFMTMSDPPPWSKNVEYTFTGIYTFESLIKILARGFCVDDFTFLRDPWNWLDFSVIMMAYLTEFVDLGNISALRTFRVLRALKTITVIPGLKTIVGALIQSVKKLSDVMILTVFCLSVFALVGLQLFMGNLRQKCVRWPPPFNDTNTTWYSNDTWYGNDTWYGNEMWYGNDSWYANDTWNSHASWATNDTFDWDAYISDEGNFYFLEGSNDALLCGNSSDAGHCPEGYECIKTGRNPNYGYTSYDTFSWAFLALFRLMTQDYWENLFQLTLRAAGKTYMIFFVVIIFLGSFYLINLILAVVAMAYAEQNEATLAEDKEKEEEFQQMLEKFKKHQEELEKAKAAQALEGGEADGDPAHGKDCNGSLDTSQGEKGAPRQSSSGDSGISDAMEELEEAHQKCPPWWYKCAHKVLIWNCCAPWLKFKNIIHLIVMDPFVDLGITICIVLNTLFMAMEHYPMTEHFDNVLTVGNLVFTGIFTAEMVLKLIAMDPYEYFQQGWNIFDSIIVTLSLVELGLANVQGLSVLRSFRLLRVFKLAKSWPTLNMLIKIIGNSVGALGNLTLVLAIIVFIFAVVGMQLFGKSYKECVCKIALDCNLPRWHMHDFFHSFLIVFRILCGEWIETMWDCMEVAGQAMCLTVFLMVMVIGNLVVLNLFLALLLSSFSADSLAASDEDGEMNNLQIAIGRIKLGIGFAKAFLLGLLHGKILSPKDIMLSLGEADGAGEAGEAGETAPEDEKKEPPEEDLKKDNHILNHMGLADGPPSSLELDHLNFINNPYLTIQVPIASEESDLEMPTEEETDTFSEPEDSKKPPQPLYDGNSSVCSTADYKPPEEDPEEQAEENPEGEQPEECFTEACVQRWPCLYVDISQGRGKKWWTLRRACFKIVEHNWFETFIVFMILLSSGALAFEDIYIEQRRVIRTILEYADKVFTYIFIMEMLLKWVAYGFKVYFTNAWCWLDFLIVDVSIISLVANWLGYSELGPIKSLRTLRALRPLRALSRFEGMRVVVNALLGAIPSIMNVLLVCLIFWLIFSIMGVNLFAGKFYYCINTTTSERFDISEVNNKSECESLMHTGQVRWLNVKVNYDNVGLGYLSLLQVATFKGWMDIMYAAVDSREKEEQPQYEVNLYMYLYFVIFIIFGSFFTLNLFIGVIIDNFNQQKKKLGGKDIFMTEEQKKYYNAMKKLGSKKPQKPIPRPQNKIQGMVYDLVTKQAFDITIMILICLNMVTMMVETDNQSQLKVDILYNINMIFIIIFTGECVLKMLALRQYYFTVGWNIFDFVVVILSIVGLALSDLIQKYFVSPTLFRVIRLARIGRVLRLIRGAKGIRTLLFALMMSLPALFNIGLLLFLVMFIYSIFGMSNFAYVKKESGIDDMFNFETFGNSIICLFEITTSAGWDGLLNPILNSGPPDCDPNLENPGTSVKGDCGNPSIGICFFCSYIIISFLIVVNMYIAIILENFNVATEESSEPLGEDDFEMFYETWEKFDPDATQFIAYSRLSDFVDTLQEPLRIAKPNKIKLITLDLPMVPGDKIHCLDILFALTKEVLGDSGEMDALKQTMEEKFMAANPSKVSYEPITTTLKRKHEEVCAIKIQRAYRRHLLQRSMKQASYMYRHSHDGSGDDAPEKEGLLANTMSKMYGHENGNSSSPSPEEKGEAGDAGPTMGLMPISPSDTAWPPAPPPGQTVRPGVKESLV", "test": "cell-based", "parameters": "host or cells: CHO", "settings": "human Nav1.4 in CHO cells"}, "[8]": {"target": "Nav1.7 sodium channel (human SCN9A gene) (Homo sapiens, UniProt Q15858)", "test": "cell-based", "parameters": "expressed in transfected cells; host or cells: CHO cells", "settings": "human Nav1.7 in CHO cells"}, "Kv1.1": {"target": "T4, Kv1.1 (Homo sapiens, UniProt Q09470)", "T4 construct": "host or cells: HEK293 or CHO", "test": "cell-based", "assay_type": "cell-based", "settings": "Kv1.1; peptide at 20 μM; percentage of control, 100% = no change; read-out: Ion channel activity (ion channel inhibition)", "outline": "as §1"}, "[9]": {"target": "T3, Nav1.5 cardiac sodium channel (human SCN5A gene)", "test": "in vitro"}, "Kv1.3 [10]": {"target": "T1, Kv1.3", "settings": "prior reports; cited from earlier work"}, "[11]": {"settings": "Kv1.3, percentage of control, 100% = no change, read-out: Ion channel activity (ion channel inhibition)"}}, "note": "Read-outs that look alike come from different tables or passages of the source. Where a SMILES comes first, the peptide text is derived from it. Bridges are numbered along the chain shown (N, C = ends)."}
{"compound": "CC[C@H](C)[C@@H]1NC(=O)[C@@H]2CSSC[C@H](NC(=O)[C@H](CCCCN)NC(=O)[C@@H](NC(=O)[C@H](CC(N)=O)NC(=O)[C@@H](NC(=O)[C@@H]3CCCN3C(=O)[C@@H](NC(=O)CNC(=O)[C@H](CO)NC(=O)CN)C(C)C)[C@@H](C)CC)C(C)C)C(=O)N[C@@H](CCCNC(=N)N)C(=O)NCC(=O)N[C@@H](CO)C(=O)N[C@@H](CCCNC(=N)N)C(=O)N[C@@H](CC(=O)O)C(=O)N[C@H]3CSSC[C@H](NC(=O)[C@H](CCCCN)NC(=O)[C@H](CO)NC(=O)[C@H](CC(N)=O)NC1=O)C(=O)N[C@@H](Cc1c[nH]cn1)C(=O)N[C@H](C(=O)N[C@H](C(=O)N1CCC[C@H]1C(=O)O)[C@@H](C)O)CSSC[C@H](NC(=O)[C@@H]1CCCN1C(=O)[C@H](CC(=O)O)NC(=O)[C@H](CC(C)C)NC3=O)C(=O)N[C@@H](CCCCN)C(=O)N[C@@H](CCCCN)C(=O)N[C@@H](C)C(=O)NCC(=O)N[C@@H](CCSC)C(=O)N[C@@H](CCCNC(=N)N)C(=O)N[C@@H](Cc1ccccc1)C(=O)NCC(=O)N[C@@H](CCCCN)C(=O)N2", "note": "[SEQ ID NO: 5] (H-GSGVPINVKCRGSRDCLDPCKKAGMRFGKCINSKCHCTP-OH; disulfide 10-30, 16-35, 20-37)", "values": [{"measurement": "Activity on potassium channels", "setting": "panel of 20 ion channels", "value": "active on a subset of potassium channels"}, {"measurement": "Activity against / inhibition of hERG (Kv11.1)", "setting": "hERG", "value": "showed additional activity"}, {"measurement": "activity at 20 µM", "setting": "Kv1.3 [1]; [11]", "value": "< 50", "unit": "%"}, {"measurement": "Activity against Nav1.7 channels", "setting": "Nav1.7", "value": "showed additional activity"}, {"measurement": "IC50", "setting": "[2]", "value": "> 1000", "unit": "nM"}, {"measurement": "IC50", "setting": "[3]", "value": "> 1000", "unit": "nM"}, {"measurement": "IC50", "setting": "[4]; test pulse TP1, read-out: IC50 Kv1.3 ion channel inhibition, TP1", "value": "> 1000", "unit": "nM"}, {"measurement": "IC50", "setting": "[4]; test pulse TP6, read-out: IC50 Kv1.3 ion channel inhibition, TP6", "value": "> 1000", "unit": "nM"}, {"measurement": "IC50", "setting": "[5]; test pulse TP1, read-out: IC50 Kv1.5 ion channel inhibition, TP1", "value": "> 1000", "unit": "nM"}, {"measurement": "IC50", "setting": "[5]; test pulse TP6, read-out: IC50 Kv1.5 ion channel inhibition, TP6", "value": "> 1000", "unit": "nM"}, {"measurement": "IC50", "setting": "[6]; TP1 (tonic inhibition), read-out: IC50 Nav1.3 ion channel inhibition, TP1", "value": "> 1000", "unit": "nM"}, {"measurement": "IC50", "setting": "[6]; TP2 (inactivated state inhibition), read-out: IC50 Nav1.3 ion channel inhibition, TP2", "value": "> 1000", "unit": "nM"}, {"measurement": "IC50", "setting": "[7]; TP1 (tonic inhibition), read-out: IC50 Nav1.4 ion channel inhibition, TP1", "value": "> 1000", "unit": "nM"}, {"measurement": "IC50", "setting": "[7]; TP2 (inactivated state inhibition), read-out: IC50 Nav1.4 ion channel inhibition, TP2", "value": "> 1000", "unit": "nM"}, {"measurement": "IC50", "setting": "[8]; TP1 (tonic inhibition), read-out: IC50 Nav1.7 ion channel inhibition, TP1", "value": "> 1000", "unit": "nM"}, {"measurement": "IC50", "setting": "[8]; TP2 (inactivated state inhibition), read-out: IC50 Nav1.7 ion channel inhibition, TP2", "value": "> 1000", "unit": "nM"}]}
{"compound": "CC[C@H](C)[C@H](NC(=O)[C@H](CCCNC(=N)N)NC(=O)[C@@H](NC(=O)[C@H](CO)NC(=O)CN)C(C)C)C(=O)N1CCC[C@H]1C(=O)N[C@H](C(=O)N[C@@H](CO)C(=O)N[C@H]1CSSC[C@@H]2NC(=O)[C@H](CCCCN)NC(=O)CNC(=O)[C@H](Cc3ccccc3)NC(=O)[C@H](CCCNC(=N)N)NC(=O)[C@H](CCSC)NC(=O)CNC(=O)[C@H](C)NC(=O)[C@H](CC(=O)O)NC(=O)[C@H](CCCCN)NC(=O)[C@@H]3CSSC[C@@H](C(=O)N[C@H](C(=O)N4CCC[C@H]4C(=O)N[C@@H](CCCCN)C(=O)O)[C@@H](C)O)NC(=O)[C@H](CC(=O)O)NC(=O)[C@H](CSSC[C@H](NC(=O)[C@H](CCC(N)=O)NC(=O)CNC(=O)[C@H](CO)NC(=O)[C@H](Cc4c[nH]cn4)NC(=O)[C@H](CCCCN)NC1=O)C(=O)N[C@@H](CC(C)C)C(=O)N[C@@H](CCCCN)C(=O)N1CCC[C@H]1C(=O)N3)NC(=O)[C@H](CCCCN)NC(=O)CNC(=O)[C@H](CC(N)=O)NC(=O)[C@H](CCSC)NC2=O)C(C)C", "note": "[SEQ ID NO: 6] (H-GSVRIPVSCKHSGQCLKPCKDAGMRFGKCMNGKCDCTPK-OH; disulfide 9-29, 15-34, 19-36)", "values": [{"measurement": "Activity on potassium channels", "setting": "panel of 20 ion channels", "value": "active on a subset of potassium channels"}, {"measurement": "activity at 20 µM", "setting": "Kv1.1", "value": "< 50", "unit": "%"}, {"measurement": "activity at 0.2 µM", "setting": "Kv1.3 [1]; Kv1.3, peptide at 0.2 μM, percentage of control, 100% = no change, read-out: Ion channel activity (ion channel inhibition)", "value": "< 80", "unit": "%"}, {"measurement": "activity at 20 µM", "setting": "Kv1.3 [1]; [11]", "value": "< 50", "unit": "%"}, {"measurement": "IC50", "setting": "[9]", "value": "> 1000", "unit": "nM"}]}
{"compound": "GSNFKVEGACSKPCRKYCIDKGARNGKCINGRCHCYY [SEQ ID NO: 12]", "values": [{"measurement": "Kv1.3 inhibition", "setting": "Kv1.3 [1]; 0.2 or 20 μM, FIG. 2", "value": "inhibit Kv1.3, consistent with these results"}, {"measurement": "Kv1.3 inhibition, previously reported", "setting": "Kv1.3 [10]", "value": "previously reported to inhibit Kv1.3"}]}
